Source: patent US10280179B2, “Spiroquinoxaline derivatives as inhibitors of non-apoptotic regulated cell-death” (Helmholtz Zentrum Munchen—Deutches Forschungszentrum Fur …, priority 2013, dated 2019)
Like-named read-outs stand apart in the source and are kept apart here.

What was measured:
Type in all cases: cell-based
[1] = test system: human neuroblastoma cell line SH-SY5Y; assay: Inhibition of BSO-induced non-apoptotic cell death (Example B.1); conditions: SH-SY5Y cells, 72 hours
Description: Inhibition of BSO-Induced Non-Apoptotic Cell Death by Compounds Disclosed Herein
L-Buthionine sulfoximine (BSO) is a well-known glutathione (GSH) depletory, which inhibits gamma-glutamyl-cysteine-synthetase, the enzyme catalyzing the rate-limiting step in GSH biosynthesis. The human neuroblastoma cell line SH-SY5Y is sensitive to BSO-induced intracellular glutathione depletion, which causes high levels of reactive oxygen species (ROS) and cellular stress mimicking cellular conditions following ischemia (cf., e.g., Yamada et al., Neurochem. Int. 59:1003-9 (2011)).
Compounds disclosed herein were evaluated for their ability to promote cell survival upon administration of a lethal dose of BSO to cell-culture medium. Briefly, SH-SY5Y cells (ATCC® CRL-2266™) were propagated in DMEM supplemented with 10% FBS/1% Penicillin-Streptomycin, and then seeded onto 96-well plates at a concentration of 750 cells/well in 100 μL of media, to which BSO (Sigma Aldrich) was added (to a final concentration of 50 μM) together with increasing concentrations of the compound to be tested, and the plates incubated at 37° C./5% CO2 for 72 hours. Compound dilutions (0.5 pM to 100 μM) were prepared from 10 mM stocks dissolved in DMSO and diluted in media. Cells treated with BSO alone were used as negative control and alpha-Tocopherol (Sigma Aldrich) was used as positive control. Compound concentrations were tested in triplicate. After incubation, cell survival was detected using the live/dead cell assay AquaBluer™ (MultiTarget Pharmaceuticals) and quantified using a fluorescence plate reader (excitation filter: 530-560 nm/emission filter: 590 nm) (SpectraMax M4; Molecular Devices). Fluorescence data so obtained was normalised to the percentage of surviving cells and IC50 values calculated using the GraphPad Prism (GraphPad Software, Inc) software package.

[2] = test system: mouse hippocampal cell line (Ht22); assay: Inhibition of glutamate-induced non-apoptotic cell death (Example B.2); conditions: HT-22, Ht22 cells
Summary of the method: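 Ht22 cells (2,000/well, DMEM/10% FBS) seeded together with 5 mM glutamate and compound (0.5 pM to 100 μM, triplicate), incubated 72 h at 37 °C/5% CO2. Cell survival then quantified; glutamate alone as negative control, alpha-tocopherol as positive control.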

Pfa1 cells = assay: Inhibition of non-apoptotic cell death after tamoxifen-induced GPx4 knockout in a recombinant cell line (Example B.4); conditions: Mus musculus, read-out: Pfa1/TAM IC50
Summary of the method: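 Immortalised murine fibroblasts with tamoxifen-inducible CreERT2 for ablation of both GPx4 copies (Pfa1 cells) received tamoxifen on day 0 together with test compound. Cell survival was measured by AlamarBlue after 72 hours.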

[3] = Cellular toxicity, same assay as Example B.4 without TAM (Example B.5); conditions: mouse; Pfa1 cells without TAM; read-out: TC50 (the source's name)
Description: Cellular Toxicity of Compounds of the Invention
An estimate of the toxicity for compounds of the invention was obtained by using the same assay as described in Example B.4, but without the addition of TAM. […] Such TC50 values obtained for certain compounds disclosed herein, together with an approximate therapeutic window (estimated by dividing each TC50 by the corresponding IC50 determined from example B.4) are shown in Table 3.

[4] = 50 μM BSO, read-out: SH-SY5Y/BSO IC50
[5] = glutamate-induced cell death, read-out: Ht22/GLU

| Structure (SMILES) | IC50 [1, 4] [nM] | IC50 [2, 5] [nM] | IC50 (Pfa1 cells) [nM] | CC50 [3] [nM] | IC50 ([1]; BSO 50 μM, cell survival (AquaBluer), read-out: SH-SY5Y/BSO (Example B.1) IC50) [nM] | IC50 ([2]; glutamate 5 mM, 72 hours, cell survival, read-out: Ht22/GLU (Example B.2) IC50) [nM] |
| --- | --- | --- | --- | --- | --- | --- |
| CN1CCC2(CC1)Nc1ccccc1N=C2NCc1cccc(Cl)c1 [N-90] | < 50 | < 200 | < 20 | 10000 to 20000 |  |  |
| CC(=O)N1CCC2(CC1)Nc1ccccc1N=C2NCc1cccc(Cl)c1 [N-99] | < 200 | < 1000 | < 1000 | 50000 to 100000 |  |  |
| Fc1cc2c(cc1F)NC1(CCNCC1)C(NCc1cccc(Cl)c1)=N2 [N-117] | < 10 | < 50 | < 50 | 1000 to 2000 |  |  |
| CN1CCC2(CC1)Nc1ccccc1N=C2NCc1ccccc1 [N-204] | < 50 | < 500 | < 500 | 20000 to 50000 |  |  |
| Clc1cc2c(cc1Cl)NC1(CCNCC1)C(NCc1ccccc1)=N2 [N-205] | < 20 | < 50 | < 10 | 1000 to 2000 |  |  |
| Cc1cc2c(cc1C)NC1(CCNCC1)C(NCc1ccccc1)=N2 [N-210] | < 50 | < 50 | < 10 | 2000 to 5000 |  |  |
| Cc1cc(C)cc(CNC2=Nc3ccccc3NC23CCNCC3)c1 [N-217] | < 50 | < 50 | < 100 | 20000 to 50000 |  |  |
| Clc1cccc(CNC2=Nc3cc4c(cc3NC23CCNCC3)OCCO4)c1 [N-219] | < 500 | < 1000 | < 1000 | 20000 to 50000 |  |  |
| c1ccc(C(CNC2=Nc3ccccc3NC23CCNCC3)c2ccccc2)cc1 [N-220] | < 50 | < 20 | < 50 | 2000 to 5000 |  |  |
| Fc1cc2c(cc1F)NC1(CCNCC1)C(NCc1ccccc1)=N2 [N-223] | < 50 | < 50 | < 50 | 20000 to 50000 |  |  |
| CN1CCC2(CC1)Nc1cc(Cl)c(Cl)cc1N=C2NCc1ccccc1 [N-230] | < 10 | < 10 | < 10 | 500 to 1000 |  |  |
| Fc1cccc(F)c1CNC1=Nc2ccccc2NC12CCNCC2 [N-231] | < 100 | < 50 | < 50 | 10000 to 20000 |  |  |
| CC1CC2(CCN1)Nc1ccccc1N=C2NCc1cccc(Cl)c1 (stereo not shown) [N-239] | < 50 | < 200 | < 1000 | 5000 to 10000 |  |  |
| CC1CC2(CCN1)Nc1ccccc1N=C2NCc1ccccc1 (stereo not shown) [N-240] | < 100 | < 500 | < 500 | 10000 to 20000 |  |  |
| Cc1cc2c(cc1C)NC1(CCNCC1)C(NCc1cccc(C(F)(F)F)c1)=N2 [N-251] | < 10 | < 50 | < 100 | 500 to 1000 |  |  |
| CC1CN(C)CCC12Nc1ccccc1N=C2NCc1ccccc1 (stereo not shown) [N-256] | < 50 | < 500 | < 500 | 10000 to 20000 |  |  |
| Cc1cc2c(cc1C)NC1(CCNCC1)C(NCc1cccc(F)c1)=N2 [N-257] | < 20 | < 100 | < 100 | 1000 to 2000 |  |  |
| Clc1ccc(CNC2=Nc3cc(Cl)c(Cl)cc3NC23CCNCC3)cc1Cl [N-258] | < 20 | < 50 | < 100 | 100 to 200 |  |  |
| Fc1cc2c(cc1F)NC1(CCNCC1)C(NCc1ccccc1Cl)=N2 [N-259] | < 10 | < 50 | < 50 | 1000 to 2000 |  |  |

| Structure (SMILES) | IC50 [1, 4] [nM] | IC50 [2, 5] [nM] | IC50 (Pfa1 cells) [nM] | CC50 [3] [nM] | IC50 ([1]; BSO 50 μM, cell survival (AquaBluer), read-out: SH-SY5Y/BSO (Example B.1) IC50) [nM] | IC50 ([2]; glutamate 5 mM, 72 hours, cell survival, read-out: Ht22/GLU (Example B.2) IC50) [nM] |
| --- | --- | --- | --- | --- | --- | --- |
| FC(F)(F)c1cccc(CNC2=Nc3cc(Cl)c(Cl)cc3NC23CCNCC3)c1 [N-260] | < 20 | < 50 | < 20 | 500 to 1000 |  |  |
| CCCCCCCCCCCCN1CCC2(CC1)Nc1ccccc1N=C2NCc1ccccc1 [N-261] | < 20 | < 200 | < 100 | 2000 to 5000 |  |  |
| Cc1cc(C)cc(CNC2=Nc3cc(C)c(C)cc3NC23CCNCC3)c1 [N-262] | < 20 | < 50 | < 50 | 500 to 1000 |  |  |
| Clc1ccccc1CNC1=Nc2ccccc2NC12CCOCC2 [O/S-1] | < 500 | < 1000 | < 1000 | 50000 to 100000 |  |  |
| Clc1cccc(CNC2=Nc3ccccc3NC23CCOCC3)c1 [O/S-2] | < 200 | < 1000 | < 500 | 20000 to 50000 |  |  |
| Fc1ccc(CNC2=Nc3ccccc3NC23CCOCC3)cc1 [O/S-6] | < 500 | < 500 | < 1000 | 50000 to 100000 | 68.3 | 218 |
| Clc1cccc(CNC2=Nc3cc(Cl)c(Cl)cc3NC23CCOCC3)c1 [O/S-94] | < 50 | < 500 | < 50 | 10000 to 20000 |  |  |
| Clc1cccc(CNC2=Nc3ccccc3NC23CCSCC3)c1 [O/S-168] | < 100 | < 500 | < 200 | 20000 to 50000 |  |  |
| c1ccc(CNC2=Nc3ccccc3NC23CCOCC3)cc1 [O/S-337] | < 500 | < 5000 | < 5000 | 50000 to 100000 |  |  |
| c1ccc(CNC2=Nc3ccccc3NC23CCSCC3)cc1 [O/S-338] | < 500 | < 5000 | < 1000 | 50000 to 100000 |  |  |
| Clc1cc2c(cc1Cl)NC1(CCOCC1)C(NCc1ccccc1)=N2 [O/S-339] | < 20 | < 200 | < 50 | 20000 to 50000 |  |  |
| Cc1cc2c(cc1C)NC1(CCOCC1)C(NCc1ccccc1)=N2 [O/S-340] | < 200 | < 500 | < 500 | 20000 to 50000 |  |  |
| Cc1cccc(CNC2=Nc3cc(Cl)c(Cl)cc3NC23CCOCC3)c1 [O/S-342] | < 100 | < 500 | < 50 | 20000 to 50000 |  |  |
| Clc1ccc(CNC2=Nc3ccccc3NC23CCOCC3)cc1Cl [O/S-345] | < 100 | < 500 | < 100 | 20000 to 50000 |  |  |
| O=S1(=O)CCC2(CC1)Nc1ccccc1N=C2NCc1ccccc1 [O/S-363] | < 2000 | < 5000 | < 2000 | 10000 to 20000 |  |  |
| FC1(F)Oc2cc3c(cc2O1)NC1(CCOCC1)C(NCc1ccccc1)=N3 [O/S-366] | < 50 | < 100 | < 100 | 20000 to 50000 |  |  |
| CC(NC1=Nc2ccccc2NC12CCSCC2)c1ccccc1 (stereo not shown) [O/S-367] | < 200 | < 500 | < 1000 | 20000 to 50000 |  |  |
| c1ccc(CCNC2=Nc3ccccc3NC23CCSCC3)cc1 [O/S-368] | < 2000 | < 2000 | < 5000 | 20000 to 50000 |  |  |
| Cc1cc2c(cc1C)NC1(CCSCC1)C(NCc1ccccc1)=N2 [O/S-369] | < 50 | < 200 | < 100 | 10000 to 20000 |  |  |
